Data set [1] can be described thus: body weight loss in U87MG study. Type of data set: in vivo, mice. As to conditions: Compound A 10 mg/kg, ZD6474 50 mg/kg, range in brackets. How it is done: (§1) Human tumour xenografts were established in female athymic mice by injecting 2.3×10^6/0.1 ml U87MG cells subcutaneously in the left hand side flank. When mean tumour volume reached approximately 0.18 cm^3, the mice were randomized into control and treatment groups. The treatment groups received 50 mg/kg ZD6474 (vehicle 1% polysorbate 80 milled overnight) or 10 mg/kg COMPOUND A (30% captisol pH5) or a combination 50 mg/kg ZD6474 and 10 mg/kg COMPOUND A by oral gavage. When administered in combination, COMPOUND A was given 2 hours before the oral dose of ZD6474. The control group received both vehicles (same sequence as above), once daily by oral gavage. Tumor volumes (measured by calliper), animal body weight and tumor condition were recorded twice weekly for the duration of the study. Mice were humanely sacrificed by CO2 euthanasia. Tumour volumes were assessed using bilateral Vernier calliper measurement at least twice weekly and calculated using the formula (length×width)×√(length×width)×(π/6), where length was taken to be the longest diameter across the tumour and width the corresponding perpendicular. Growth inhibition from the start of treatment was assessed by comparison of the differences in tumor volume between control and treated groups. […] Statistical significance was evaluated using a one-tailed, two-sample t test. […]

The test system of data set [2] is pAKT. Description: pharmacodynamic study, pAKT in U87MG xenograft tissue. Type of data set: in vivo, mice. To be noted: 4 days of treatment, 2 hrs after last dosing, Compound A 10 mg/kg, ZD6474 50 mg/kg.
A further data set deals with U87MG xenografts. Kind of data set: U87MG xenograft tumour growth, combination study. In kind it is in vivo. As to conditions: female athymic mice, oral gavage once daily, 7 days, Compound A 10 mg/kg/qd, ZD6474 50 mg/kg/qd, combination same doses, compared to control. How it is done:
as §1

Data set [3] has as its system cleaved caspase 3. Description: cleaved caspase 3 immunohistochemistry, U87MG xenografts. In kind it is in vivo, mice. As to conditions: U87MG xenograft, 2 hours after 4 days of treatment; control 0.46%; Compound A 10 mg/kg, ZD6474 50 mg/kg. On the procedure: The levels of cleaved caspase 3 (percentage of positive nuclei) were determined in tumour xenografts by immunohistochemistry 2 hours after 4 days of treatment.

Data set [4] concerns Microvessel density (CD31 staining). Kind of data set: microvessel density by CD31 immunohistochemistry, U87MG xenografts. Type of data set: in vivo, mice. As to conditions: U87MG xenograft, 2 hours after 4 days of treatment; vehicle 59%; Compound A 10 mg/kg, ZD6474 50 mg/kg. On the procedure:
Microvessel density (MVD) was evaluated using CD31 staining by immuno-histochemistry 2 hours after 4 days of treatment. MVD values were 59% in vehicle-treated animals, reduced to 22% (p<0.05) after ZD6474, 50% (p=0.23) after Compound A, and 28% (p<0.05) after the combination (FIG. 8). There was no statistical interaction between compound A and ZD6474 in the combination-treated tumours (p=0.27).

Data set [5] has as its system pS6. Description: pharmacodynamic study, pS6 in U87MG xenograft tissue. To be noted: 4 days of treatment, 2 hrs after last dosing, Compound A 10 mg/kg, ZD6474 50 mg/kg.
Data set [6] in a line: body weight loss in A549 study. In kind it is in vivo, mice. As to conditions: Compound A 20 mg/kg, AZD2171 3 mg/kg, range in brackets. How it is done: When mean tumour volume reached approximately 0.27 cm^3, the mice were randomized into control and treatment groups. […] The control group received both vehicles alone (same sequence as above), once daily by oral gavage. Tumor volumes (measured by calliper), animal body weight and tumor condition were recorded twice weekly for the duration of the study. Mice were humanely sacrificed by CO2 euthanasia. Tumour volumes were assessed using bilateral Vernier calliper measurement at least twice weekly and calculated using the formula (length×width)×√(length×width)×(π/6), where length was taken to be the longest diameter across the tumour and width the corresponding perpendicular. Growth inhibition from the start of treatment was assessed by comparison of the differences in tumor volume between control and treated groups. Because the variance in mean tumor volume data increases proportionally with volume (and is therefore disproportionate between groups), data were log-transformed to remove any size dependency before statistical evaluation. Statistical significance was evaluated using a one-tailed, two-sample t test. […] A two-way ANOVA test was performed using the factors concentration of drug A and concentration of drug B. The data analyzed was Log(final tumor volume)−Log(initial tumor volume) calculated for each individual animal at the end of the study. […]

The test system of a further data set is NCI-H526 xenografts. Description: NCI-H526 xenograft tumour growth, combination study. In kind it is in vivo. As to conditions: NCI-H526, nude mice, oral gavage; Compound A 20 mg/kg, AZD2171 3 mg/kg, combination same doses; compared with vehicle control. How it is done:
Cells were grown in NCI-H526 (RPMI 10% FCS 1% Glutamine 10% Ml), and 1×10^7 cells were implanted into the flank of nude mice (NCI-H526 plus 50% matrigel).
When mean tumor size reached approx 0.2 cm^3, the mice were randomized into control and treatment groups. […] When administered in combination, COMPOUND A was given 2 hours […] the oral dose of the other compound. The control group received the (10% DMSO 90% propylene glycol) vehicle alone, once daily by oral gavage. Tumor volumes (measured by calliper), animal body weight and tumor condition were recorded twice weekly for the duration of the study. Mice were sacrificed by CO2 euthanasia. The tumor volume was calculated (taking length to be the longest diameter across the tumor and width to be the corresponding perpendicular diameter using the formula: (length×width)×√(length×width)×(π/6). Growth inhibition from the start of treatment was assessed by comparison of the differences in tumor volume between control and treated groups. Because the variance in mean tumor volume data increases proportionally with volume (and is therefore disproportionate between groups), data were log-transformed to remove any size dependency before statistical evaluation. Statistical significance was evaluated using a one-tailed, two-sample t test. To analyze the data from the combination study, the statistical tool SigmaStat has been used. […]

Data set [7] relates to pS6. Description: pharmacodynamic study, pS6 in A549 xenograft tissue. Type of data set: in vivo, mice. To be noted: 4 days of treatment, 2 hrs after last dosing, Compound A 20 mg/kg, AZD2171 3 mg/kg. How it is done: (§2) Compound A was dosed two hours before AZD2171 (or vehicle).
The subject of data set [8] is Microvessel density (CD31 staining). Description: microvessel density by CD31 immunohistochemistry, A549 xenografts. Type of data set: in vivo, mice. To be noted: A549 xenograft, 2 hours after 4 days of treatment; vehicle 26.6%; Compound A 20 mg/kg, AZD2171 3 mg/kg. On the procedure: Microvessel density (MVD) was evaluated using CD31 staining by immunohistochemistry 2 hours after 4 days of treatment.

The test system of data set [9] is pAKT. Kind of data set: pharmacodynamic study, pAKT in A549 xenograft tissue. Type of data set: in vivo, mice. To be noted: 4 days of treatment, 2 hrs after last dosing, Compound A 20 mg/kg, AZD2171 3 mg/kg. On the procedure: as §2
In the combination group, levels of pAKT were similar to those with Compound A to 58% (p<0.005) compared to control (FIG. 3).

The subject of data set [10] is cleaved caspase 3. Description: cleaved caspase 3 immunohistochemistry, A549 xenografts. Type of data set: in vivo, mice. To be noted: A549 xenograft, 2 hours after 4 days of treatment; control 0.94%; Compound A 20 mg/kg, AZD2171 3 mg/kg. On the procedure:
Compound A was dosed two hours before AZD2171 (or vehicle). […] The levels of cleaved caspase 3 (percentage of positive nuclei) were determined in tumour xenografts by immunohistochemistry 2 hours after 4 days of treatment.

The next data set has as its system A549 tumour xenografts. Kind of data set: A549 xenograft tumour growth, combination study. As to conditions: Compound A 20 mg/kg, AZD2171 3 mg/kg; for tumour growth inhibition: A549, female athymic mice, oral gavage once daily, 21 days, combination same doses, compared to control; for tumours smaller than at start of treatment: A549, individual tumour volumes at the end of the dosing period. Type of data set: in vivo, mice. How it is done: Human tumour xenografts were established in female athymic mice by injecting 5×10^6/0.1 ml A549a cells subcutaneously in the left hand side flank.
When mean tumour volume reached approximately 0.27 cm^3, the mice were randomized into control and treatment groups. […] The control group received both vehicles alone (same sequence as above), once daily by oral gavage. Tumor volumes (measured by calliper), animal body weight and tumor condition were recorded twice weekly for the duration of the study. Mice were humanely sacrificed by CO2 euthanasia. Tumour volumes were assessed using bilateral Vernier calliper measurement at least twice weekly and calculated using the formula (length×width)×√(length×width)×(π/6), where length was taken to be the longest diameter across the tumour and width the corresponding perpendicular. Growth inhibition from the start of treatment was assessed by comparison of the differences in tumor volume between control and treated groups. Because the variance in mean tumor volume data increases proportionally with volume (and is therefore disproportionate between groups), data were log-transformed to remove any size dependency before statistical evaluation. Statistical significance was evaluated using a one-tailed, two-sample t test. To analyze the data from the combination study, the statistical tool SigmaStat has been used. A two-way ANOVA test was performed using the factors concentration of drug A and concentration of drug B. The data analyzed was Log(final tumor volume)−Log(initial tumor volume) calculated for each individual animal at the end of the study. This tool is used to assess whether there is a main effect of drug A, a main effect of drug B plus a significant mechanistic interaction between the two compounds A and B (eg, one compound influences the effect of the other compound) which may be interpreted as antagonism, additivity or synergism. The statistical analysis was performed at the end of the dosing period (21 days).

A further data set has as its system HUVEC. Kind of data set: HUVEC assay, endothelial cell proliferation. In kind it is cell-based. As to conditions: Homo sapiens.
Data set [11] concerns the target stem cell factor receptor tyrosine kinase (SCF RTK, commonly known as c-Kit) (Homo sapiens, UniProt P10721). Description: inhibition of c-Kit.
The subject of another data set is Calu-6 tumour xenograft. Kind of data set: Calu-6 tumour xenograft in vivo solid tumour model. To be noted: once-daily oral, 28 days.

Like-named read-outs stand apart in the source and are kept apart here.

Sequence of stem cell factor receptor tyrosine kinase (SCF RTK, commonly known as c-Kit) (P10721 26-976): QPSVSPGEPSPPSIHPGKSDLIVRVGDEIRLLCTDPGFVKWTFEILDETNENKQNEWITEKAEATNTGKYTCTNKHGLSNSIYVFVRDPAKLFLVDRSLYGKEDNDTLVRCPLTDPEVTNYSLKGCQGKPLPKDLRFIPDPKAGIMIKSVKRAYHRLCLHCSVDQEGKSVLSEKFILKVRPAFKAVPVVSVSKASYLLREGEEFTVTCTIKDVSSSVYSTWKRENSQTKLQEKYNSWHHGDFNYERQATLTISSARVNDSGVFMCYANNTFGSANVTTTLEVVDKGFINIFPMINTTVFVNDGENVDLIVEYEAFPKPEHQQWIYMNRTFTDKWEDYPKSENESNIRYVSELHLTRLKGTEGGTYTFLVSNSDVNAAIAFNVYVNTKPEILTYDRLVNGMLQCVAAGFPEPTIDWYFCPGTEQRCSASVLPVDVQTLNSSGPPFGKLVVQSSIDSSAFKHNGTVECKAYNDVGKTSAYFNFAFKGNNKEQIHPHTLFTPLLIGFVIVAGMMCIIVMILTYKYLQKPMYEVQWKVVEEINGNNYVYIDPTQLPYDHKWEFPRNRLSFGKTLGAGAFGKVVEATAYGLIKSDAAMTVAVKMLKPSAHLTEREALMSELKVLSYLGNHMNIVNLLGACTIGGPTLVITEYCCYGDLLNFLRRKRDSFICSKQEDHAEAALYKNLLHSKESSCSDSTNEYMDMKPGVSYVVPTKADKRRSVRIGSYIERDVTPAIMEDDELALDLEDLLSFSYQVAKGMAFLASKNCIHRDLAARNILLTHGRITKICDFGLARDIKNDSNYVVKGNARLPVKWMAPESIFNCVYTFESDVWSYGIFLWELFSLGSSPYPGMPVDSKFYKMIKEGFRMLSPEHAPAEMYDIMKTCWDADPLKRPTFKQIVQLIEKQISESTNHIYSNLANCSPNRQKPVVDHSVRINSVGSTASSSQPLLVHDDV

For the compound `COc1cc2c(Nc3ccc(Br)cc3F)ncnc2cc1OCC1CCN(C)CC1` [ZD6474, 4-(4-bromo-2-fluoroanilino)-6-methoxy-7-(1-methylpiperidin-4-ylmethoxy)quinazoline], the “maximum body weight loss” value in [1] was 3.77%. In addition, the “levels of pAKT (normalised to total) compared to control” value in the data set on pAKT [2] was determined as 87%. The tumour growth inhibition in the data set on U87MG xenografts is −14.6%. The “CC3 values (percentage of positive nuclei)” value with cleaved caspase 3 [3] was found to be 0.73%. Besides, the MVD values in [4] worked out at 22%. Moreover, in the data set with pS6 [5], the “levels of pS6 (normalised to total) compared to control” value stood at 108%.
Turning to `COc1ccc(-c2ccc3c(N4CCOC[C@@H]4C)nc(N4CCOC[C@@H]4C)nc3n2)cc1CO` [Compound A, [5-[2,4-bis[(3S)-3-methylmorpholin-4-yl]pyrido[5,6-e]pyrimidin-7-yl]-2-methoxyphenyl]methanol], the entries for the “maximum body weight loss” value in [6] and in [1] were 3.45% and 0.44%, respectively. Moreover, the “levels of pAKT (normalised to total) compared to control” value turned out to be 37% in the data set on pAKT [2] and 48% with pAKT [9]. The tumour growth inhibition in the data set with U87MG xenografts is 28.4%; in the data set with A549 tumour xenografts, 99.3%. Moreover, the “reduction in geometric mean delta tumour volume” value in the data set with NCI-H526 xenografts was 38%. The “CC3 values (percentage of positive nuclei)” value is listed as 1.64% with cleaved caspase 3 [3] and 1.98% in the data set on cleaved caspase 3 [10]. The “levels of pS6 (normalised to total) compared to control” value in the data set with pS6 [7] is recorded as 37%; in the data set with pS6 [5], 55%. For the same compound, the results for the MVD values in [8] and in data set [4] were 19.39% and 50%, respectively. The “tumours smaller than at start of treatment” value in the data set on A549 tumour xenografts is 4 out of 10.
With `COc1cc2c(Oc3ccc4[nH]c(C)cc4c3F)ncnc2cc1OCCCN1CCCC1` [AZD2171, 4-(4-fluoro-2-methyl-1H-indol-5-yloxy)-6-methoxy-7-(3-(pyrrolidin-1-yl)propoxy)quinazoline], the “maximum body weight loss” value in data set [6] is 2.52%. The IC50 in the data set on HUVEC (HUVEC assay, VEGF-stimulated, read-out: IC50, VEGF-stimulated endothelial cell proliferation) is 0.4 ± 0.2 nM; in the data set with HUVEC (HUVEC, basal (no VEGF stimulation), read-out: IC50, basal endothelial cell proliferation), more than 500 nM. Besides, the “reduction in geometric mean delta tumour volume” value in the data set with NCI-H526 xenografts worked out at 64%. Besides, the “levels of pS6 (normalised to total) compared to control” value in the data set with pS6 [7] is reported as 126%. In addition, the “inhibition of c-Kit” value in data set [11] is recorded as “inhibits c-Kit”. The same compound showed an MVD values in data set [8] of 7.75%. The “inhibition of growth of Calu-6 tumour xenograft” value amounted to 49% in the data set on Calu-6 tumour xenograft (1.5 mg/kg/day), 69% in the data set with Calu-6 tumour xenograft (3 mg/kg/day) and 91% with Calu-6 tumour xenograft (6 mg/kg/day). For the same compound, the “levels of pAKT (normalised to total) compared to control” value with pAKT [9] is recorded as 95%. Besides, in the data set on cleaved caspase 3 [10], the “CC3 values (percentage of positive nuclei)” value is given as 0.43%. Moreover, the tumour growth inhibition in the data set with A549 tumour xenografts was found to be 81.6%. In addition, the “tumours smaller than at start of treatment” value in the data set with A549 tumour xenografts is on record as “tumour volumes were greater than at start of the treatment”.

Source of the values: US20110028471A1, “COMBINATION THERAPY 238” (ASTRAZENECA AB, priority 2008, published 2011).
